Source: article PMC9721423, “Novel benzo chromene derivatives: design, synthesis, molecular docking, cell cycle arrest, and apoptosis induction in human acute myeloid leukemia HL-60 cells” (Journal of Enzyme Inhibition and Medicinal Chemistry, 2022)
Read-outs that look alike come from different tables or passages of the source.

Columns and labels:
[1] = system: TK-10; experiment: cells; set-up: species or system NCI-60 human tumour cell lines; NCI-60 five-dose growth inhibition screen, sulforhodamine B protein stain; details: Homo sapiens, TK-10, 48 h; read-out: GI50 5a
Procedure, shortened: (§1)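 NCI60 protocol: compounds (DMSO:glycerol stocks) tested at a single concentration of 10^−5 M for 48 h, growth read by sulforhodamine B protein staining as percent growth. For selected compounds, dose–response curves gave GI50, TGI and LC50; selectivity taken as full-panel MG-MID divided by subpanel MG-MID.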

[2] = system: UACC-257; experiment: cells; set-up: species or system NCI-60 human tumour cell lines; NCI-60 five-dose growth inhibition screen, sulforhodamine B protein stain; details: Homo sapiens, UACC-257, 48 h; read-out: GI50 5a
Procedure, shortened: as §1

[3] = system: HCT-15; experiment: cells; set-up: species or system NCI-60 human tumour cell lines; NCI-60 five-dose growth inhibition screen, sulforhodamine B protein stain; details: Homo sapiens, HCT-15, 48 h
Procedure, shortened: as §1

[4] = system: UO-31; experiment: cells; set-up: species or system NCI-60 human tumour cell lines; NCI-60 five-dose growth inhibition screen, sulforhodamine B protein stain; details: Homo sapiens, UO-31, 48 h; read-out: GI50 5a
Procedure, shortened: as §1

[5] = system: OVCAR-4; experiment: cells; set-up: species or system NCI-60 human tumour cell lines; NCI-60 five-dose growth inhibition screen, sulforhodamine B protein stain; details: Homo sapiens, OVCAR-4, 48 h; read-out: GI50 5a
Procedure, shortened: as §1

[6] = system: SW-620; experiment: cells; set-up: species or system NCI-60 human tumour cell lines; NCI-60 five-dose growth inhibition screen, sulforhodamine B protein stain; details: Homo sapiens, SW-620, 48 h
Procedure, shortened: as §1

[7] = system: HOP-92; experiment: cells; set-up: species or system NCI-60 human tumour cell lines; NCI-60 five-dose growth inhibition screen, sulforhodamine B protein stain; details: Homo sapiens, HOP-92, 48 h
Procedure, shortened: as §1

[8] = system: 786-0; experiment: cells; set-up: species or system NCI-60 human tumour cell lines; NCI-60 five-dose growth inhibition screen, sulforhodamine B protein stain; details: Homo sapiens, 786-0, 48 h
Procedure, shortened: as §1

[9] = biological target: T1, CDK-2 (Homo sapiens, UniProt P24941); experiment: Kinase-Glo MAX luminescence kinase assay, CDK-2/cyclin A2 kit; format: biochemical; details: read-out: CDK-2/ cyclin A2 IC50 (μM) ± SD
T1 construct: gene CDK2; with cyclin A2

SMILES | GI50 [1] [nM] | GI50 [2] [nM] | GI50 ([3]; read-out: GI50 5a) [nM] | GI50 [4] [nM] | GI50 [5] [nM] | GI50 ([6]; read-out: GI50 5a) [nM] | GI50 ([7]; read-out: GI50 5a) [nM] | GI50 ([8]; read-out: GI50 5a) [nM] | IC50 [9] [µM] | GI50 ([3]; read-out: GI50 6a) [nM] | GI50 ([6]; read-out: GI50 6a) [nM] | GI50 ([7]; read-out: GI50 6a) [nM] | GI50 ([8]; read-out: GI50 6a) [nM]
N=C(NO)C1=C(N)Oc2c(ccc3ccccc23)C1c1ccccc1 (centres unmarked) [5a, 2-Amino-4-phenyl-N-hydroxy-4H-benzo[h]chromene-3-carboxamidine] | 16800 | 18100 | 130 | 440 | 760 | 170 | 820 | 560 | 0.171 | – | – | – | –
CC(=O)NC1=C(C#N)C(c2ccccc2)c2ccc3ccccc3c2O1 (centres unmarked) [6a, N-(3-Cyano-4-phenyl-4H-benzo[h]chromen-2-yl)acetamide] | – | – | – | – | – | – | – | – | 0.301 | 510 | 410 | 610 | 490
